Columns and labels:
Format in all cases: cell-based
[1] = tested on: Chrysosporium keratinophilum; assay: Agar plate disc-diffusion, inhibition zone
Experimental: (§1) The agar plate disc-diffusion method was applied. […] The discs were then placed onto the surface of agar plates (nutrient agar for bacteria and Sabouraud's dextrose agar for fungi) seeded with the test organism. Each plate contained 15 mL of the agar medium, previously seeded with 0.2 mL of the broth culture of each organism pregrown for 18 hours. The plates were incubated at 37° C. for 48 h, and 72 h for fungi. The inhibition zones were measured in mm. Discs impregnated with DMSO were used as a control, and its inhibition zone was subtracted from the tested compound actual inhibition zone.

Bacillus cereus = assay: Agar plate disc-diffusion, inhibition zone
Experimental: as §1

Aspergillus flavus = assay: Agar plate disc-diffusion, inhibition zone
Experimental: as §1

Escherichia coli = assay: Agar plate disc-diffusion, inhibition zone
Experimental: as §1

Staphylococcus aureus = assay: Agar plate disc-diffusion, inhibition zone
Experimental: as §1

Pseudomonas aeruginosa = assay: Agar plate disc-diffusion, inhibition zone
Experimental: as §1

different microbes = assay: Antimicrobial activity, agar plate disc-diffusion (overall statement); settings: against different microbes (bacteria and fungi)
Experimental: The agar plate disc-diffusion method was applied. Sterilized filter papers (6 mm in diameter) were wetted with 10 μL of a solution of 5-((2-isopropyl-5-methylphenoxy)methyl)-3-(naphthalen-1-yl)-1,2,4-oxadiazole (3) to be tested, containing 10 mg/mL in DMSO, and the discs were allowed to air dry. The discs were then placed onto the surface of agar plates (nutrient agar for bacteria and Sabouraud's dextrose agar for fungi) seeded with the test organism. Each plate contained 15 mL of the agar medium, previously seeded with 0.2 mL of the broth culture of each organism pregrown for 18 hours. The plates were incubated at 37° C. for 48 h, and 72 h for fungi. The inhibition zones were measured in mm. Discs impregnated with DMSO were used as a control, and its inhibition zone was subtracted from the tested compound actual inhibition zone.

[2] = tested on: human osteosarcoma cells (MG-63); assay: Cytotoxicity by SRB assay; settings: MG-63 cells, 0.01 μM to 100 μM for 72 h
From the text: (§2) The anticancer activity of the described synthesized compounds against highly aggressive androgen-independent metastatic human prostate cancer cells (PC3) and osteosarcoma (MG-63) cells. The human prostate cancer cells (PC3) and human osteosarcoma cells (MG-63) were obtained from Nawah Scientific Inc. (Mokatam, Cairo, Egypt) and cultured in DMEM (Dulbecco's modified eagle's medium), Gibco, USA, supplemented with fetal bovine serum (FBS) at a concentration of 10% and 100 U/mL of penicillin and streptomycin (PS). The Cells were incubated at 37° C. in a humidified environment that contained 5% CO2.
(§3) Cells were seeded in 96-well plates as aliquots of 100 μL cell suspension and incubated in a complete media for 24 h. afterward, cells were treated with 5-((2-isopropyl-5-methylphenoxy)methyl)-3-(naphthalen-1-yl)-1,2,4-oxadiazole at diverse concentrations ranging from 0.01 μM to 100 μM for 72 h. Then, cells were fixed at 4° C. for one hour with 150 μL of 10% trichloroacetic acid (TCA). […] Then, 150 μL of Tris pH 10.5 (10 mM) was added, and the absorbance was measured at 540 nm using a BMG LABTECH®-FLUOstar Omega microplate reader (Ortenberg, Germany). Half maximal inhibitory concentrations (IC50) values were calculated for each experiment using GraphPad Prism 6 software. […]
(§4) The inhibition was calculated using the following equation: Inhibition %=100−Average Viability

[3] = tested on: human prostate cancer cells (PC3); assay: Cytotoxicity by SRB assay; settings: 0.01 μM to 100 μM for 72 h
From the text: as §2, §3, §4

[4] = A = concentration of comp. = 10,000 μL
[5] = B = concentration of comp. = 30,000 μL
[6] = C = concentration of comp. = 50,000 μL

SMILES	inhibition zone [1, 4]	inhibition zone [1, 5]	inhibition zone [1, 6]	inhibition zone (Bacillus cereus; [4])	inhibition zone (Bacillus cereus; [5])	inhibition zone (Bacillus cereus; [6])	inhibition zone (Aspergillus flavus; [4])	inhibition zone (Aspergillus flavus; [5])	inhibition zone (Aspergillus flavus; [6])	inhibition zone (Escherichia coli; [4])	inhibition zone (Escherichia coli; [5])	inhibition zone (Escherichia coli; [6])	inhibition zone (Staphylococcus aureus; [4])	inhibition zone (Staphylococcus aureus; [5])	inhibition zone (Staphylococcus aureus; [6])	inhibition zone (Pseudomonas aeruginosa; [4])	inhibition zone (Pseudomonas aeruginosa; [5])	inhibition zone (Pseudomonas aeruginosa; [6])	also measured
O=C(O)c1cn(C2CC2)c2cc(N3CCNCC3)c(F)cc2c1=O [Cip., ciprofloxacin, reference compound]	29 mm	30 mm	53 mm	29 mm	30 mm	42 mm	29 mm	30 mm	42 mm	30 mm	39 mm	60 mm	43 mm	44 mm	53 mm	29 mm	30 mm	53 mm	–
Cc1ccc(C(C)C)c(OCc2nc(-c3cccc4ccccc34)no2)c1 [Compound 3, 5-((2-isopropyl-5-methylphenoxy)methyl)-3-(naphthalen-1-yl)-1,2,4-oxadiazole]	27 mm	29 mm	46 mm	28 mm	30 mm	39 mm	18 mm	22 mm	30 mm	29 mm	32 mm	51 mm	14 mm	21 mm	24 mm	24 mm	28 mm	37 mm	antimicrobial activity (different microbes): excellent antimicrobial activities; antiproliferative activity [2]: excellent antiproliferative activities; antiproliferative activity [3]: excellent antiproliferative activities
